Laboratory results published in PMC6749314, “Development of the Tumor-Specific Antigen-Derived Synthetic Peptides as Potential Candidates for Targeting Breast and Other Possible Human Carcinomas” (Molecules, 2019).
Where two headings read alike, the source gives them in different places.

Legend:
[1] = target: human epidermal growth factor receptor 2 (HER2) (human (endogenous in SKBR3, MCF7, T47D)) (UniProt P04626); assay: radioligand binding; saturation binding of 99mTc-labeled peptide (0.1-30 nM) to ~300,000 MCF7 cells in low-serum media, 60 min, room temperature; non-specific binding with ~200-fold molar excess of unlabeled peptide; nonlinear regression
[2] = target: human epidermal growth factor receptor 2 (HER2) (human (endogenous in SKBR3, MCF7, T47D)) (UniProt P04626); assay: radioligand binding; saturation binding of 99mTc-labeled peptide (0.1-30 nM) to ~300,000 T47D cells in low-serum media, 60 min, room temperature; non-specific binding with ~200-fold molar excess of unlabeled peptide; nonlinear regression
[3] = format: physicochemical
Description: Table 1 Characterization of ^99mTc-HER2 and ^99mTc-MUC1 peptides. | column: Log P (Octanol/Saline)

[4] = test system: T47D tumor xenografts; conditions: for tumor uptake: nude mice, mean ± SD
Method: (§3) In vivo biodistribution studies were performed on healthy Balb/c mice (n = 3–5 in each group, body mass 19–22 g) at 1 and 4 h after i.v. injection of the HPLC-purified radiopeptide (100 μL, 10–15 μCi, total peptide dose ~10 ng) via the lateral tail vein as described previously [54]. Mice were euthanized by cervical dislocation at specified times, the selected tissues/organs were removed, and radioactivity was measured in a γ-counter. Uptake of radioactivity in the tissues and organs was expressed as the percent injected dose per gram (% ID/g) of tissue/organ, which was calculated by comparison with standard solutions representing 10% of the injected dose per animal. For the clearance studies, radioactivity in the urine with bladder is expressed as the percent of the injected dose per organ (% ID/organ).
(§4) Approximately 7 million HER2-positive SKBR3 cells and MUC1-positive MCF7 and T47D breast tumor xenografts were injected subcutaneously into a group of nude female mice and allowed to grow for 4 to 6 weeks. After sufficient growth of tumors, the animals were sacrificed and the uptake of ^99mTc-HER2 and ^99mTc-MUC1 by the tumors and other major organs was determined by biodistribution experiments, as described above.

[5] = Radio-HPLC retention time on C18 reversed-phase column; format: physicochemical; conditions: Econosphere C18 (10 μm, 250 × 4.6 mm), 0.1% TFA water/CH3CN, 5 to 95% B over 30 min, 1.1 mL/min, longer retention ascribed to higher lipophilicity
Method: The HPLC analysis and purification of the peptides were performed on a Shimadzu HPLC system using Econosphere C18 reversed-phase column (10 μm, 250 × 4.6 mm, Alltech, Deerfield, IL, USA). For HPLC experiments, a gradient solvent system of 0.1% (v/v) TFA in water (solvent A) and 0.1% (v/v) TFA in CH3CN (solvent B) at a flow rate of 1.1 mL/min was used. The HPLC gradient began with a solvent composition of 95% A and 5% B from 0 to 2.5 min followed by a linear gradient of 95% A and 5% B to 5% A and 95% B over 30 min. The gradient remained at this position for 3 min before switching back to 95% A and 5% B for another 7 min. The main peak of each radiolabeled peptide was isolated, and acetonitrile then evaporated under a stream of nitrogen gas. The HPLC system (Shimadzu Corporation, Kyoto, Japan) was equipped with a UV-VIS detector (Shimadzu Corporation, Kyoto, Japan) set at 220 nm, a Flow-count γ-radioactivity detection system (Bioscan Inc., Washington, DC, USA) and the Lauralite HPLC chromatogram analysis program (LabLogic Systems Ltd., Sheffield, UK). Radiochemical purity was estimated by evaluating radioactivity peaks eluted for each ^99mTc-labeled peptide from the HPLC column and calculating the area under the peak (ROI). The HPLC-purified compounds were reconstituted in sterile saline and used for in vitro and in vivo experiments.

[6] = test system: MDA-MB-231 breast xenografts; assay: In vivo tumor targeting, MDA-MB-231 xenografts (negative control); conditions: nude mice, HER2-/MUC1-negative MDA-MB-231 xenografts, mean ± SD
[7] = test system: T47D cells; assay: Cellular internalization (acid wash); format: cell-based, human; conditions: % of cell-surface bound radiopeptide internalized, acidic buffer pH 5.0, 10 min, 37 °C
Method: (§1) In order to differentiate between cell-surface bound and cellular internalized radioactivity, cell pellet was treated with 0.3 mL of acidic buffer (0.02 M sodium acetate in saline, pH 5.0) for 10 min at 37 °C at the end of the binding experiment, followed by centrifugation and washing with cold acidic buffer. The amount of cell surface-bound (acid-wash) and internalized (acid-resistant) radioactivity was determined by measuring the radioactivity of the supernatant and the cell-pellet, respectively, in a γ-counter.

[8] = test system: MCF7 cells; assay: Cellular internalization (acid wash); format: cell-based, human; conditions: % of cell-surface bound radiopeptide internalized, acidic buffer pH 5.0, 10 min, 37 °C
Method: as §1

[9] = test system: T47D breast cancer cell line; assay: In vitro tumor cell binding (saturation, Kd); parameters: species or system human; conditions: for Kd: T47D, ~300,000 cells, 0.1-30 nM radiopeptide, 60 min, room temperature, duplicate, non-specific with ~200-fold excess unlabeled peptide, mean ± SD
Method: (§2) The cell-binding studies of ^99mTc-labeled HER2 and MUC1 peptides into respective HER2 and MUC1-positive human breast cancer cell lines (American Type Culture Collection, Rockville, MD, USA) was performed according to the method described previously. In brief, ~300,000 cells (in 0.3 mL low-serum media) were incubated with various amounts of radiopeptides, ranging between 0.1 and 30 nM of peptides (prepared from the serial dilutions of HPLC-purified radiopeptides), in duplicate for 60 min at room temperature. Incubation was terminated by dilution with cold saline (0.3 mL) and the cells were pelleted by centrifugation. The cell-pellets was then rapidly washed with cold saline to remove any unbound peptide and centrifuged to collect supernatants. Radioactivity in the cell-pellet and the washings was measured in a γ-counter. Non-specific binding was determined in the presence of ~200-fold molar excess of unlabeled peptide. Specific binding was calculated by subtracting the non-specifically bound radioactivity from that of the total binding. The dissociation constant (Kd) was calculated using a plot of specific cell-bound radioactivity versus increasing concentrations of the radiopeptide using a nonlinear regression analysis program (GraphPad Prism Software Inc., San Diego, CA, USA).

[10] = test system: MCF7 breast cancer cell line; assay: In vitro tumor cell binding (saturation, Kd); parameters: species or system human; conditions: ~300,000 cells, 0.1-30 nM radiopeptide, 60 min, room temperature, duplicate, non-specific with ~200-fold excess unlabeled peptide, mean ± SD
Method: as §2

[11] = parameters: species or system Balb/c mice; conditions: mouse, in vivo, iv
Method: Approval for the animal protocol used in this study was obtained from the Institutional Animal Care and Use Committee. Animal studies were conducted according to the international regulations governing the safe and proper use of laboratory animals [48]. In vivo biodistribution studies were performed on healthy Balb/c mice (n = 3–5 in each group, body mass 19–22 g) at 1 and 4 h after i.v. injection of the HPLC-purified radiopeptide (100 μL, 10–15 μCi, total peptide dose ~10 ng) via the lateral tail vein as described previously [54]. Mice were euthanized by cervical dislocation at specified times, the selected tissues/organs were removed, and radioactivity was measured in a γ-counter. Uptake of radioactivity in the tissues and organs was expressed as the percent injected dose per gram (% ID/g) of tissue/organ, which was calculated by comparison with standard solutions representing 10% of the injected dose per animal. For the clearance studies, radioactivity in the urine with bladder is expressed as the percent of the injected dose per organ (% ID/organ).

[12] = test system: MCF7 tumor xenografts; conditions: for tumor uptake: nude mice, mean ± SD
Method: as §3, §4
(§5) In general, for preclinical gamma camera imaging, each tumor-bearing mouse model was intravenously injected with ~200 μCi of ^99mTc-HER2 or ^99mTc-MUC1 peptide through the tail vein. Mouse static planar images were then acquired at 1 h after the radiotracer injection by a portable hand-held γ-camera equipped with CsI(Tl) scintillation detector, with intrinsic spatial resolution of 2.45 mm (IP guardian 2, Li-Tech, Italy).

[13] = test system: HER2-positive SKBR3 tumor xenografts; conditions: for tumor uptake: nude mice, n = 3-5, mean ± SD
Method: as §3, §4, §5

[14] = test system: SKBR3 cells; assay: Cellular internalization (acid wash); format: cell-based, human; conditions: % of cell-surface bound radiopeptide internalized, acidic buffer pH 5.0, 10 min, 37 °C
Method: as §1

[15] = test system: HER2-positive SKBR3 breast cancer cell line; assay: In vitro tumor cell binding (saturation, Kd); parameters: species or system human
Method: as §2

[16] = target: p185HER2/neu; conditions: binding to p185HER2/neu; ref [22],[23],[24]; cited from earlier work
Description: AHNP peptide was able to disable HER2 tyrosine kinases in vitro and in vivo similar to the monoclonal antibody from which it was derived. […] It has been shown that AHNP diminished the early tyrosine phosphorylation of p185HER2/neu, and inhibited proliferation of p185HER2/neu overexpressing tumor cells in ...

[17] = test system: breast carcinoma xenografts; conditions: radiolabeled KCCYSL peptides, ref [8],[19]; cited from earlier work
Description: Several small peptide molecules have been developed in recent years for targeting HER2-positive breast cancer. For example, a 6-amino-acid containing peptide, KCCYSL, was discovered by the phage display method after in vitro selection with a recombinant ERBB2 extracellular domain. The KCCYSL peptide, derivatized with different metal chelators (i.e., DOTA, NOTA, CB-TE2A, and DAP) and radiolabeled with radionuclide metal ions (e.g., ^111In, ^64Cu, ^99mTc), has been successfully used for in vivo imaging of HER2 overexpressing tumor models. The tumor cell binding affinity (Kd) of KCCYSL for ...

[18] = MCF7 xenografts, 1 h p.i., unblocked

## 99mTc-HER2 hybrid peptide (Acetyl-Gly-Gly-Cys-ALA-Lys-Ile-Phe-Gly-Ser-Leu-Ala-Phe-Leu-Lys-Cys-Cys-Tyr-Ser-Leu-CONH2)
[1]
  Kd: 158 nM
[2]
  Kd: 169 nM

## Ac-GGCEPDTRP-NH2 [^99mTc-MUC1]
[3]
  Log P (Octanol/Saline): −2.22 ± 0.12
[4]; T47D xenografts, 1 h p.i.
  tumor-to-blood ratio: 3.27
  tumor-to-muscle ratio: 12.62
  tumor uptake: 2.65 ± 0.54 % ID/g
[4]; T47D xenografts, 4 h p.i.
  tumor-to-muscle ratio: 11.40
  tumor uptake: 1.14 ± 0.21 % ID/g
[4]; mouse, in vivo
  accumulation in the kidneys: 2.26 ± 0.36 % ID/g
  cleared from the kidneys: 48%
  hepatobiliary excretion: below 13 % ID
  initial accumulation in the kidneys: 4.35 ± 1.0 % ID/g
  radioactivity remaining in the blood circulation: 0.30 ± 0.07 % ID/g
[5]
  HPLC Retention Time: 14.10 min
[6]; 1 h p.i.
  tumor uptake: 0.64 ± 0.13 % ID/g
[6]; 4 h p.i.
  tumor uptake: 0.41 ± 0.10 % ID/g
[7]
  % Internalization: 21.11 ± 2.95%
[8]
  % Internalization: 18.92 ± 2.16%
[9]
  Kd: 3.48 ± 0.84 nM
[9]; ratio of Kd values
  binding affinity higher to T47D cell line compared to MCF7 cell line: 3 fold
[10]
  Kd: 10.3 ± 1.55 nM
[11]
  radioactivity found in the urine: up to 47.0 ± 6.28 % ID
[12]; MCF7 xenografts, 1 h p.i.
  tumor-to-blood ratio: 2.39
  tumor-to-muscle ratio: 18.47
[12]; MCF7 xenografts, 4 h p.i.
  tumor-to-blood ratio: 1.09
  tumor-to-muscle ratio: 11.20
  tumor uptake: 1.12 ± 0.30 % ID/g
[12]; MCF7 xenografts, over 4 h
  washout from the tumors: 60%
[12]; MUC1-positive (MCF7) xenografts, 100 μg of unlabeled MUC1 peptide 30 min before injection of radiopeptide
  tumor uptake, blocked: 1.05 ± 0.21 % ID/g
[12]; MUC1-positive (MCF7) xenografts, 100 μg unlabeled MUC1 peptide 30 min before, P = 0.02
  reduction of tumor uptake by blocking dose: approximately 62%
[12]; mouse, in vivo
  hepatobiliary excretion (liver + intestines): below 13 % ID
  radioactivity excreted in the urine: up to 49 % ID
[12]; [18]
  tumor uptake: 2.77 ± 0.63 % ID/g
[12]; nude mouse, MCF7 xenograft, 1 h p.i., ~200 μCi i.v.
  gamma camera imaging of tumor: detectable in the image

## Acetyl-Gly^19-Gly^18-Cys^17-ALA^16-Lys^15-Ile^14-Phe^13-Gly^12-Ser^11-Leu^10-Ala^9-Phe^8-Leu^7-Lys^6-Cys^5-Cys^4-Tyr^3-Ser^2-Leu^1-CONH2 [^99mTc-HER2]
[3]
  Log P (Octanol/Saline): 1.38 ± 0.06
[4]; T47D xenografts, 1 h p.i.
  tumor uptake: 1.25 ± 0.32 % ID/g
[4]; T47D xenografts, 4 h p.i.
  tumor uptake: 0.80 ± 0.17 % ID/g
[13]; SKBR3 xenografts, 1 h p.i.
  tumor-to-blood ratio: 1.54
  tumor-to-muscle ratio: 9.37
[13]; SKBR3 xenografts, 4 h p.i.
  tumor-to-blood ratio: 1.34
  tumor-to-muscle ratio: 8.71
  tumor uptake: 1.22 ± 0.25 % ID/g
[13]; SKBR3 xenografts, over 4 h
  washout from the tumors: 57%
[13]; SKBR3 xenografts, 100 μg of HER2 peptide 30 min before injection of radiopeptide
  tumor uptake, blocked: 1.07 ± 0.24 % ID/g
[13]; SKBR3 xenografts, 100 μg of HER2 peptide 30 min before, P = 0.02
  reduction of tumor uptake by blocking dose: approximately 62%
[13]; mouse, in vivo
  hepatobiliary excretion (liver + intestines): below 15 % ID
  kidney accumulation and retention: up to 10 % ID/g
  radioactivity excreted in the urine: up to 41 % ID
[13]; SKBR3 xenografts, 1 h p.i., unblocked
  tumor uptake: 2.81 ± 0.79 % ID/g
[13]; nude mouse, SKBR3 xenografts, 1 h p.i., ~200 μCi i.v.
  gamma camera imaging of tumor: detectable in the image
[5]
  HPLC Retention Time: 20.0 min
[6]; 1 h p.i.
  tumor uptake: 0.66 ± 0.13 % ID/g
[6]; 4 h p.i.
  tumor uptake: 0.31 ± 0.10 % ID/g
[14]
  % Internalization: 19.90 ± 5.35%
[7]
  % Internalization: 11.85 ± 2.83%
[8]
  % Internalization: 12.16 ± 3.20%
[15]; SKBR3, ~300,000 cells, 0.1-30 nM radiopeptide, 60 min, room temperature, duplicate, non-specific with ~200-fold excess unlabeled peptide, mean ± SD
  Kd: 50 ± 14.2 nM
[15]; ratio of Kd values
  binding affinity higher for SKBR3 cells than MCF7 and T47D cell lines: more than 3 fold
[9]
  Kd: 169 ± 22.3 nM
[10]
  Kd: 158 ± 24.6 nM
[11]
  radioactivity found in the urine: up to 40.0 ± 5.10 % ID
[12]; [18]
  tumor uptake: 1.33 ± 0.41 % ID/g
[12]; MCF7 xenografts, 4 h p.i.
  tumor uptake: 0.91 ± 0.22 % ID/g

## FCDGFYACYADVGGG [AHNP, anti-HER2/neu peptidomimetic designed from heavy-chain CDR3 loop of trastuzumab]
[16]
  Kd: 150 nM

## KCCYSL [literature values for chelator-derivatized, radiolabeled forms]
[17]
  tumor uptake: below 1 % ID/g
